According to ChEMBL document CHEMBL5131389, “PSMA-targeted small-molecule docetaxel conjugate: Synthesis and preclinical evaluation” (Eur J Med Chem, 2022):
Where “and” joins values, the source holds several entries; their conditions need not be identical. Equal values may be shown once.

Assays:
[1] = tested on: CWR22R; experiment: Antitumor activity against human 22Rv1 cells xenografted in Balb/c nude mouse assessed as tumor growth inhibition at 20 mg/kg, ip administered once in two days for three times and measured 1 day after the end of treatment relative to control; assay type: functional; settings: 22Rv1, 168 h, time 7 day, read-out: TGI
[2] = Toxicity in Balb/c nude mouse xenografted with human 22Rv1 cells assessed as animal death at 20 mg/kg, ip measured upto 30 days; assay type: organism-based, CWR22R; settings: in vivo, 720 h, time < 30 day
[3] = Chronic toxicity in rat assessed as increase in creatinine concentration at 18.75 to 22.5 mg/kg, iv administered as pluronic F127 formulation at 4 intervals for 21 days and observed 3 weeks post last injection relative to control; assay type: organism-based; settings: in vivo, 2544 h, dose 18.75-22.5 mg/kg, time 106 day
[4] = Subchronic toxicity in Wistar rat assessed as tolerance at 58 mg/kg, iv administered as pluronic F127 formulation daily for 28 days; assay type: organism-based; settings: in vivo, 672 h, time 28 day
[5] = Subchronic toxicity in Wistar rat assessed as diarrhoea at 58 mg/kg, iv administered as pluronic F127 formulation daily for 28 days and observed on days 4 to 5; assay type: organism-based; settings: in vivo, 672 h, time 28 day
[6] = Clearance in Soviet Chinchilla rabbit at 8.1 mg/kg, iv administered as pluronic F127 formulation measured upto 72 hrs by high-performance liquid chromatography tandem mass spectrometric analysis; assay type: ADME, organism-based, Oryctolagus cuniculus; settings: in vivo
[7] = Acute toxicity in ICR mouse assessed as hypertrophied adrenal gland at 183 to 960 mg/kg, iv administered as pluronic F127 formulation and measured for 14 days; assay type: organism-based; settings: in vivo, 336 h, dose 183-960 mg/kg, time 14 day
[8] = Toxicity in Balb/c nude mouse xenografted with human 22Rv1 cells assessed as animal death at 10 mg/kg, ip measured upto 30 days; assay type: organism-based, CWR22R; settings: in vivo, 720 h, time < 30 day
[9] = Acute toxicity in Wistar rat assessed as violation of motor activity in hind limb administered intravenously as pluronic F127 formulation and measured for 14 days; settings: in vivo, iv, 336 h, dose 15-279 mg/kg, time 14 day
[10] = Acute toxicity in ICR mouse assessed as maximum tolerated dose administered intravenously as pluronic F127 formulation and measured for 14 days; settings: in vivo, route iv, time 14 day
[11] = AUC (0 to t) in Soviet Chinchilla rabbit at 8.1 mg/kg, iv administered as pluronic F127 formulation measured upto 72 hrs by high-performance liquid chromatography tandem mass spectrometric analysis; assay type: ADME, organism-based, Oryctolagus cuniculus; set-up: dose 8.1 mg/kg, time < 72 hrs, route iv; settings: in vivo
[12] = Acute toxicity in ICR mouse assessed as decrease in body weight administered intravenously as pluronic F127 formulation and measured for 14 days; settings: in vivo, iv, 336 h, dose 183-960 mg/kg, time 14 day
[13] = Subchronic toxicity in Wistar rat assessed as cumulative effect of drug at 58 mg/kg, iv administered as pluronic F127 formulation daily for 28 days; assay type: organism-based; settings: in vivo, 672 h, time 28 day
[14] = biological target: T1, Liver carboxylesterase (Sus scrofa, UniProt Q29550); experiment: Stability of the compound in porcine liver esterase assessed as compound remaining measured upto 96 hrs by LCMS based mass spectrometric analysis relative to initial amount; assay type: ADME; settings: pig, read-out: Stability
T1 sequence (Q29550 whole entry): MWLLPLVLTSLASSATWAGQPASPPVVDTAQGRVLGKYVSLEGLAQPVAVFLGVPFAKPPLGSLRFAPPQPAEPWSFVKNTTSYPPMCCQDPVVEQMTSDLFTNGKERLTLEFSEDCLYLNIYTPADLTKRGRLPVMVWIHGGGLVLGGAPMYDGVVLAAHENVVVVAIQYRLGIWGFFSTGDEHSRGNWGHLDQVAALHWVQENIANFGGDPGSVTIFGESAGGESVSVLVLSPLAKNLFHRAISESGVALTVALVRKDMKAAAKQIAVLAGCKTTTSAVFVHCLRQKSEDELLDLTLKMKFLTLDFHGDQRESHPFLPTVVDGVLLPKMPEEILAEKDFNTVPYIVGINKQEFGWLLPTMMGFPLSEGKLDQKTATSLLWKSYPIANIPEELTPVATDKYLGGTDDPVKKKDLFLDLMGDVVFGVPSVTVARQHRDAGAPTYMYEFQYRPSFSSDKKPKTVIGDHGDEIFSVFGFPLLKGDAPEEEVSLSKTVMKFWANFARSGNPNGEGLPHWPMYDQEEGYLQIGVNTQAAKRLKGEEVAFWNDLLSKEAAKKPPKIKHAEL

[15] = Toxicity in Balb/c nude mouse xenografted with human 22Rv1 cells assessed as animal death at 30 mg/kg, ip measured upto 30 days; assay type: organism-based, CWR22R; settings: in vivo, 720 h, time < 30 day
[16] = Chronic toxicity in Soviet Chinchilla rabbit assessed as decrease in body weight at 10.17 mg/kg, iv administered as pluronic F127 formulation at 4 intervals for 21 days and observed upto day 49; assay type: organism-based, Oryctolagus cuniculus; settings: in vivo, 1176 h, time < 49 day
[17] = Chronic toxicity in rat assessed as increase in relative mass of adrenal gland administered intravenously as pluronic F127 formulation at 4 intervals for 21 days and observed 3 weeks post last injection relative to control; assay type: tissue-based; settings: in vivo, iv, 2544 h, time 106 day
[18] = AUC (0 to infinity) in Soviet Chinchilla rabbit at 8.1 mg/kg, iv administered as pluronic F127 formulation measured upto 72 hrs by high-performance liquid chromatography tandem mass spectrometric analysis; assay type: ADME, organism-based, Oryctolagus cuniculus; set-up: dose 8.1 mg/kg, time < 72 hrs, route iv; settings: in vivo
[19] = Toxicity in BALB/c nude mouse xenografted with human DU-145 cells assessed as animal death at 30 to 60 mg/kg, ip measured upto 30 days; assay type: organism-based; settings: in vivo, 720 h, dose 30-60 mg/kg, time < 30 day
[20] = tested on: CWR22R; experiment: Antitumor activity against human 22Rv1 cells xenografted in Balb/c nude mouse assessed as tumor growth inhibition at 20 mg/kg, ip administered once in two days for three times and measured 4 days after the end of treatment relative to control; assay type: functional; settings: 22Rv1, 240 h, time 10 day, read-out: TGI
[21] = tested on: CWR22R; experiment: Antitumor activity against human 22Rv1 cells xenografted in Balb/c nude mouse assessed as tumor growth inhibition at 10 mg/kg, ip administered once in two days for three times and measured 4 days after the end of treatment relative to control; assay type: functional; settings: 22Rv1, 240 h, time 10 day, read-out: TGI
[22] = Chronic toxicity in rat assessed as change in volume of excreted urine at 15 mg/kg, iv administered as pluronic F127 formulation at 4 intervals for 21 days and observed 3 weeks post last injection; assay type: organism-based; settings: in vivo, 2544 h, time 106 day
[23] = tested on: CWR22R; experiment: Antitumor activity against human 22Rv1 cells xenografted in Balb/c nude mouse assessed as tumor growth inhibition at 10 mg/kg, ip administered once in two days for three times and measured 1 day after the end of treatment relative to control; assay type: functional; settings: 22Rv1, 168 h, time 7 day, read-out: TGI
[24] = Acute toxicity in Wistar rat assessed as lethal dose administered intravenously as pluronic F127 formulation and measured for 14 days; settings: in vivo, route iv, time 14 day
[25] = tested on: DU-145; experiment: Antitumor activity against human DU-145 cells xenografted in BALB/c nude mouse assessed as tumor growth inhibition at 30 mg/kg, ip measured upto 30 days; assay type: functional; settings: DU-145, 720 h, time <= 30 day, read-out: TGI
[26] = Chronic toxicity in rat assessed as neurological disorder at 22.5 mg/kg, iv administered as pluronic F127 formulation at 4 intervals for 21 days and observed 3 weeks post last injection; assay type: organism-based; settings: in vivo, 2544 h, time 106 day

Compound: CC(=O)O[C@@]12CO[C@@H]1C[C@H](O)[C@@]1(C)C(=O)[C@H](O)C3=C(C)[C@@H](OC(=O)[C@H](OC(=O)CCCc4cn(CCCNC(=O)[C@H](Cc5ccc(O)cc5)NC(=O)[C@H](Cc5ccccc5)NC(=O)CCC(=O)NCCCCCC(=O)N(CCCC[C@H](NC(=O)N[C@@H](CCC(=O)O)C(=O)O)C(=O)O)Cc5cccc(Cl)c5)nn4)[C@@H](NC(=O)OC(C)(C)C)c4ccccc4)C[C@@](O)([C@@H](OC(=O)c4ccccc4)[C@H]21)C3(C)C
- inhibition in vivo at 20 mg/kg [1]: 78%
- Activity [2]: Non-Toxic
- Activity [3]: Toxic
- Activity [4]: Toxic
- Activity [5]: Toxic
- clearance [6]: 0.483 mL/min/kg
- Activity [7]: Toxic
- Activity [8]: Non-Toxic
- Activity [9]: Toxic
- MTD at 336 h [10]: 183 mg/kg
- AUC(0-t) at 72 h [11]: 253 µg·h/mL
- Activity [12]: Toxic
- Activity [13]: Toxic
- remaining at 96 h [14]: 60%
- Activity [15]: Toxic
- Activity [16]: Toxic
- Activity [17]: Toxic
- AUC(0-inf) [18]: 289 µg·h/mL
- Activity [19]: Non-Toxic
- inhibition in vivo at 20 mg/kg [20]: 85%
- inhibition in vivo at 10 mg/kg [21]: 88%
- Activity [22]: Non-Toxic
- inhibition in vivo at 10 mg/kg [23]: 84%
- LD50 at 336 h [24]: 58 mg/kg and 30 µmol/kg
- inhibition in vivo at 30 mg/kg [25]: 81.7%
- Activity [26]: Toxic
